Results published in ChEMBL document CHEMBL1150977, “A quantitative analysis of kinase inhibitor selectivity” (Nat Biotechnol, 2008).

Columns and labels:
[1] = molecular target: Tyrosine-protein kinase CSK (Homo sapiens, UniProt P41240)
[2] = molecular target: Serine/threonine-protein kinase SIK2 (Homo sapiens, UniProt Q9H0K1)
[3] = molecular target: Death-associated protein kinase 3 (Homo sapiens, UniProt O43293)
Myosin-IIIa = Myosin-IIIa (Homo sapiens, UniProt Q8NEV4)
Activin receptor type-2A = Activin receptor type-2A (Homo sapiens, UniProt P27037)
Activin receptor type-2A, sequence (P27037 whole entry): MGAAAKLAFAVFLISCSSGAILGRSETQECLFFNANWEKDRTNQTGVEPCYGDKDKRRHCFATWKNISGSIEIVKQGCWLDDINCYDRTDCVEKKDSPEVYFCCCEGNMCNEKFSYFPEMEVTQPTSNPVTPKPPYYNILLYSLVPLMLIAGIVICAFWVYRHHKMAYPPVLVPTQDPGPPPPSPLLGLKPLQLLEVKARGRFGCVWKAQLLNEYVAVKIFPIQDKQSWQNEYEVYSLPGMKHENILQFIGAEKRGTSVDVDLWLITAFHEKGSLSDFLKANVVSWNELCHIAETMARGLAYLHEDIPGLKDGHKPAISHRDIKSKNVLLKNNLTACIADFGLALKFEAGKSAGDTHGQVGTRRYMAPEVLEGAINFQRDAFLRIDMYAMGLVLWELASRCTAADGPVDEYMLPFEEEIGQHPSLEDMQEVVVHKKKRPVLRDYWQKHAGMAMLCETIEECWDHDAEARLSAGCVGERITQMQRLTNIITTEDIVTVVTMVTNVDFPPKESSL

[4] = molecular target: T1, Tyrosine-protein kinase receptor UFO (Homo sapiens, UniProt P30530)
T1 sequence (P30530 whole entry): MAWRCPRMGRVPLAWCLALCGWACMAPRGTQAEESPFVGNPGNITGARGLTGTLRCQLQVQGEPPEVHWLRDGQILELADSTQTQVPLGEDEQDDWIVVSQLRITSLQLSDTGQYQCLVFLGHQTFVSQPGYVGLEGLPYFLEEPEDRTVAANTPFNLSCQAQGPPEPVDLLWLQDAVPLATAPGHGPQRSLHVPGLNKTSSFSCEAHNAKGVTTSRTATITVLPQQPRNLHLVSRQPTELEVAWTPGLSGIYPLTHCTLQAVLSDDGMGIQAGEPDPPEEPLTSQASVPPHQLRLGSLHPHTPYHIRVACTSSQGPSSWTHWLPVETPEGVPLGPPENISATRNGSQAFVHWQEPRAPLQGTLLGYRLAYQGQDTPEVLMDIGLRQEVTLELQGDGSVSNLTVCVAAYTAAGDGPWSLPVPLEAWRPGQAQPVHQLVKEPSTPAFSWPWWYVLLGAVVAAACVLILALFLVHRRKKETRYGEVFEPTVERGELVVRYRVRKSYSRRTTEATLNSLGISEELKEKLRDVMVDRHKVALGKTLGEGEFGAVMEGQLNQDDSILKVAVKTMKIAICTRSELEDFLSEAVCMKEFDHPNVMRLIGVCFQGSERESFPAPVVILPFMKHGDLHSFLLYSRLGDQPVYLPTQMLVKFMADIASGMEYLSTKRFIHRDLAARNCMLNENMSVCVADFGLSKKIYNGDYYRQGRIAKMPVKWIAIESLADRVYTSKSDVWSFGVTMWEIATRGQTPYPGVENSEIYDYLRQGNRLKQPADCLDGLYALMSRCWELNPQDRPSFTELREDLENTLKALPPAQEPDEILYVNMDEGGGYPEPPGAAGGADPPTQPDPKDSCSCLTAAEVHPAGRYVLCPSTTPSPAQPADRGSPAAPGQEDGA

[5] = molecular target: Casein kinase I isoform epsilon (Homo sapiens, UniProt P49674)
Casein kinase I isoform epsilon, sequence (P49674 whole entry, canonical isoform): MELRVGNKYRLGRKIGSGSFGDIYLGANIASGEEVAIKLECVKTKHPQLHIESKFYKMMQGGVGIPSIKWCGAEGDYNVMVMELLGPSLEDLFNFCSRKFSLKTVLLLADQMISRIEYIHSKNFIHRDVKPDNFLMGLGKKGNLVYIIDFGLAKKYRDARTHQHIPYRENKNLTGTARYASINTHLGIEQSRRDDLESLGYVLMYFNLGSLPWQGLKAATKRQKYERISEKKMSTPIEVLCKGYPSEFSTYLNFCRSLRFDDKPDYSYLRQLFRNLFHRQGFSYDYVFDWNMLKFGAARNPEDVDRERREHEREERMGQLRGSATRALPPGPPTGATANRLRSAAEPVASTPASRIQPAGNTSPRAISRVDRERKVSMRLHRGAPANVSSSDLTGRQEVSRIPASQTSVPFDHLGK

[6] = molecular target: Calcium/calmodulin-dependent protein kinase type II subunit gamma (Homo sapiens, UniProt Q13555)
Calcium/calmodulin-dependent protein kinase type II subunit gamma, sequence (Q13555 whole entry): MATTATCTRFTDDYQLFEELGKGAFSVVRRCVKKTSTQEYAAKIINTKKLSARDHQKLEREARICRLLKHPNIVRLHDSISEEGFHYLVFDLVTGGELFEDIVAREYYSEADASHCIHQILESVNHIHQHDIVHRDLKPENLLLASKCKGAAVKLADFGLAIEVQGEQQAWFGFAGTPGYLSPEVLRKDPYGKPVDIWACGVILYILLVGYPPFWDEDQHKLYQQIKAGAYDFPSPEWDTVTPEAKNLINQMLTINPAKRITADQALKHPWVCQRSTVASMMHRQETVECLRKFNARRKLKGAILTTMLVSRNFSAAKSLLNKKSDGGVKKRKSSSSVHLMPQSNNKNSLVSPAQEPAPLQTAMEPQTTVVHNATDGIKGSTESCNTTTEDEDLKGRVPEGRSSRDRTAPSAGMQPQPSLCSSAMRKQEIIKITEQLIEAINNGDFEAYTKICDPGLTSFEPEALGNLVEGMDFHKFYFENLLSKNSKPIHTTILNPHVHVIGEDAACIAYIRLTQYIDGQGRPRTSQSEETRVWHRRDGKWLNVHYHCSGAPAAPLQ

[7] = molecular target: Mitogen-activated protein kinase 4 (Homo sapiens, UniProt P31152)
Mitogen-activated protein kinase 4, sequence (P31152 whole entry): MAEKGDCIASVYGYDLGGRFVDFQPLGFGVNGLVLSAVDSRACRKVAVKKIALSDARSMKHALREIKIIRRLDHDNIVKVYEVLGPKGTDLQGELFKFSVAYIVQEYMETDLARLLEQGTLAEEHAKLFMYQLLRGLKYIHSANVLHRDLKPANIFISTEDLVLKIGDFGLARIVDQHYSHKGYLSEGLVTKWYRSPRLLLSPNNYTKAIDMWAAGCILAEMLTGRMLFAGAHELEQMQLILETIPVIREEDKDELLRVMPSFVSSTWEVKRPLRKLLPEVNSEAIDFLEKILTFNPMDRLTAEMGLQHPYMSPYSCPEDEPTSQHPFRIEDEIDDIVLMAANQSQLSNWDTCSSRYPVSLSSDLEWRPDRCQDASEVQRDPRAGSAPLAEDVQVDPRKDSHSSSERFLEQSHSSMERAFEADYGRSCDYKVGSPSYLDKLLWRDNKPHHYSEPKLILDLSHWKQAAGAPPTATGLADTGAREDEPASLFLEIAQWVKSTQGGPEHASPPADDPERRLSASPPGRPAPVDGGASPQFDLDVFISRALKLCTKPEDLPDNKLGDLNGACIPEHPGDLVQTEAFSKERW

[8] = molecular target: Receptor-type tyrosine-protein kinase FLT3 (Homo sapiens, UniProt P36888, D835Y)
[9] = molecular target: Mitogen-activated protein kinase 8 (Homo sapiens, UniProt P45983)
Mitogen-activated protein kinase 8, sequence (P45983 whole entry): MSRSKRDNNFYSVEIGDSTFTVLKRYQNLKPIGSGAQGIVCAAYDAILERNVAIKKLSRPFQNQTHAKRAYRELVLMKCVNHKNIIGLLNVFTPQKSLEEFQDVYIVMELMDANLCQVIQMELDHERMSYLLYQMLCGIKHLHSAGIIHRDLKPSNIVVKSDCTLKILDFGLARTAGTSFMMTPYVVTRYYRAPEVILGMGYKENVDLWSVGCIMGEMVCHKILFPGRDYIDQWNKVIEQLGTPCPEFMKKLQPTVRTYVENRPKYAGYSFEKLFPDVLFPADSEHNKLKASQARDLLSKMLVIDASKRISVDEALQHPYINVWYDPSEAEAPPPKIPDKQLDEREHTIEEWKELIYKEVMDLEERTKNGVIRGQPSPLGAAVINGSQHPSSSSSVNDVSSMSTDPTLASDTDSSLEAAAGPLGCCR

[10] = molecular target: T2, NUAK family SNF1-like kinase 2 (Homo sapiens, UniProt Q9H093)
T2 sequence (Q9H093 whole entry): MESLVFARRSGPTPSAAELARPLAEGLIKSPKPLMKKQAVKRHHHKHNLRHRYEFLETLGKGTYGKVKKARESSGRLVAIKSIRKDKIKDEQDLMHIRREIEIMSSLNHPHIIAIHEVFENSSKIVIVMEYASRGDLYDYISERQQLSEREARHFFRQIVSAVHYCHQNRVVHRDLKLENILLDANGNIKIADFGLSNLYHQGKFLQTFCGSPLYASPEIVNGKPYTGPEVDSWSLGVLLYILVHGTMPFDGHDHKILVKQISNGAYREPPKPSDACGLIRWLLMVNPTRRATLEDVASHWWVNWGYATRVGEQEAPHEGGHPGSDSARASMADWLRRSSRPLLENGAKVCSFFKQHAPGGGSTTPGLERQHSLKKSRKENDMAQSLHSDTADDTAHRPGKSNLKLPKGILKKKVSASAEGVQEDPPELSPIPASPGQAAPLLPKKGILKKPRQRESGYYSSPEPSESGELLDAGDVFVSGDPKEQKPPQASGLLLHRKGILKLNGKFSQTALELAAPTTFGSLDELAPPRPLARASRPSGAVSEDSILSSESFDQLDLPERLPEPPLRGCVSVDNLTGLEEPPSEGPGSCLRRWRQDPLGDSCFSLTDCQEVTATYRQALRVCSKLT

[11] = molecular target: T3, Serine/threonine-protein kinase D1 (Homo sapiens, UniProt Q15139)
T3 sequence (Q15139 whole entry): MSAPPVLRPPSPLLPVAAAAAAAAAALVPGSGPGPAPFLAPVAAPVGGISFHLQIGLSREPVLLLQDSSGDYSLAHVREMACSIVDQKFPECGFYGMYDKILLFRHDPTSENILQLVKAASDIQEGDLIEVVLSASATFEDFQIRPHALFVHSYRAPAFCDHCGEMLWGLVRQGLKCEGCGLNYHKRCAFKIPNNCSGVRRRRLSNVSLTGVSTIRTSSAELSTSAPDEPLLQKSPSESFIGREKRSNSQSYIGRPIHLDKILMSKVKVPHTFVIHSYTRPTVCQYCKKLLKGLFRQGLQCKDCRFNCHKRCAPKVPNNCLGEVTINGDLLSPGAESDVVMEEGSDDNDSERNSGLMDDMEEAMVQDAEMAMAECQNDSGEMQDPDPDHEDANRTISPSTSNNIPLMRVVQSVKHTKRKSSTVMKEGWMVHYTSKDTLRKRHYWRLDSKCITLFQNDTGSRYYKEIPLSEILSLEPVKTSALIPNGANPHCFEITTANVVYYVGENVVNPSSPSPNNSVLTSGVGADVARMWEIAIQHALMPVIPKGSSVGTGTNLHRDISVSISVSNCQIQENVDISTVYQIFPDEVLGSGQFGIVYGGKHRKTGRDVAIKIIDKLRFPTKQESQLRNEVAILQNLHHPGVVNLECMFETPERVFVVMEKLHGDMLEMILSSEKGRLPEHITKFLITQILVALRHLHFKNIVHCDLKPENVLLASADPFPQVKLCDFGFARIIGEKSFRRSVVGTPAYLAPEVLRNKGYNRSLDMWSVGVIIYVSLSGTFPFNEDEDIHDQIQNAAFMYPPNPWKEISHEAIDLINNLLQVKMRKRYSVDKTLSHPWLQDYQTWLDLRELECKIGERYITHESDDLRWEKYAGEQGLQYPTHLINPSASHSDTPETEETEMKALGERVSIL

Myosin-IIIa, sequence (Q8NEV4 whole entry): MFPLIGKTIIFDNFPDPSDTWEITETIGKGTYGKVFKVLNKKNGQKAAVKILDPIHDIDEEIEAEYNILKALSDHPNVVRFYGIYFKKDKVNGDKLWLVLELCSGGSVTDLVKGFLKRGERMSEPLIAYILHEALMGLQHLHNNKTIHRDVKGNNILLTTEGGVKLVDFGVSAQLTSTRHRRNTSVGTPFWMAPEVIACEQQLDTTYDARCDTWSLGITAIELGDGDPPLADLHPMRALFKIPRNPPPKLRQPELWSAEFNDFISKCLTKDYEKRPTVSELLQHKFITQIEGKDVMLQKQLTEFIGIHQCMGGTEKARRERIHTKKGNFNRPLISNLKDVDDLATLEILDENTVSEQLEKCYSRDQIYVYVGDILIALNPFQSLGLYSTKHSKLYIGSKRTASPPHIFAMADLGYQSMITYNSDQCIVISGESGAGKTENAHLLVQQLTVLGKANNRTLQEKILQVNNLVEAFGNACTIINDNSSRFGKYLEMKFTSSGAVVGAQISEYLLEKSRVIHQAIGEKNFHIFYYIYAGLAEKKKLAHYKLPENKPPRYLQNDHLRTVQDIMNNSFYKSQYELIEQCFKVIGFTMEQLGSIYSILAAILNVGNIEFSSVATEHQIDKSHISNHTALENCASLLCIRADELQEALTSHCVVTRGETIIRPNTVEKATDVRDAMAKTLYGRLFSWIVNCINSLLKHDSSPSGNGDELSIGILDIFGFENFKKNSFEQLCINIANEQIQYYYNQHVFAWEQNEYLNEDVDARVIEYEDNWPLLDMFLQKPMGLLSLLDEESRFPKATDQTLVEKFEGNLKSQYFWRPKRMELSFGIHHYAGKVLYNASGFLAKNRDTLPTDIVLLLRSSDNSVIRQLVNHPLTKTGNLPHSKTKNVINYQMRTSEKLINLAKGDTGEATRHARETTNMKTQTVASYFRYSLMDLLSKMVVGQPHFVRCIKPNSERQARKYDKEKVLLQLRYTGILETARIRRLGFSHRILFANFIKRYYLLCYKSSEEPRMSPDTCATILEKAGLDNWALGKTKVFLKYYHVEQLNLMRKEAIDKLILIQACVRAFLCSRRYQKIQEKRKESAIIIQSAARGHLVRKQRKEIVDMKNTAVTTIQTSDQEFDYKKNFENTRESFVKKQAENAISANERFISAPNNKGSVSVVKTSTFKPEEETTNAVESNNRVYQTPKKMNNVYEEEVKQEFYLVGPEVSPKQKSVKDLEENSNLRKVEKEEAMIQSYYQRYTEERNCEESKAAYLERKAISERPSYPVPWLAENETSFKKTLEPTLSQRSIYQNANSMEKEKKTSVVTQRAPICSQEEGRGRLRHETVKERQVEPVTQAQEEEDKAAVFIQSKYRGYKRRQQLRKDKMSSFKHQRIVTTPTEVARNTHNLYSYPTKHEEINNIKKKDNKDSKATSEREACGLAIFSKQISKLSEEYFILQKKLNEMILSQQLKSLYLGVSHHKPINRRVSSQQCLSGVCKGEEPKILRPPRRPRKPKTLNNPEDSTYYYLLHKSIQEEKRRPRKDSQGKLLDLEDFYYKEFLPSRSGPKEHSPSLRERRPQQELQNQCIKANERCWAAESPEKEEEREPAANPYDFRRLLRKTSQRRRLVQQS
Death-associated protein kinase 3, sequence (O43293 whole entry): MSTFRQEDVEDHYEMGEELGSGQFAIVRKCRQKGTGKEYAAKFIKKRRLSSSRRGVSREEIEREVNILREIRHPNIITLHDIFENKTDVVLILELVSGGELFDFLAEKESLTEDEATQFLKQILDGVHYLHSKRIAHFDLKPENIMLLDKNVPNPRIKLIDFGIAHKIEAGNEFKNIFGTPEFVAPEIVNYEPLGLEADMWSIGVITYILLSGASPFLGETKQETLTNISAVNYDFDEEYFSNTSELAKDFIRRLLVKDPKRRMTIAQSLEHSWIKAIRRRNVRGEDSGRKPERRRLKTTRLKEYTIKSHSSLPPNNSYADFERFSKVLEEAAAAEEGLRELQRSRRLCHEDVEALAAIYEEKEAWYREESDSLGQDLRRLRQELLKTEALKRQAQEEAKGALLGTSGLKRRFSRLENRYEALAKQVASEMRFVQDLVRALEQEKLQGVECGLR
Tyrosine-protein kinase CSK, sequence (P41240 whole entry): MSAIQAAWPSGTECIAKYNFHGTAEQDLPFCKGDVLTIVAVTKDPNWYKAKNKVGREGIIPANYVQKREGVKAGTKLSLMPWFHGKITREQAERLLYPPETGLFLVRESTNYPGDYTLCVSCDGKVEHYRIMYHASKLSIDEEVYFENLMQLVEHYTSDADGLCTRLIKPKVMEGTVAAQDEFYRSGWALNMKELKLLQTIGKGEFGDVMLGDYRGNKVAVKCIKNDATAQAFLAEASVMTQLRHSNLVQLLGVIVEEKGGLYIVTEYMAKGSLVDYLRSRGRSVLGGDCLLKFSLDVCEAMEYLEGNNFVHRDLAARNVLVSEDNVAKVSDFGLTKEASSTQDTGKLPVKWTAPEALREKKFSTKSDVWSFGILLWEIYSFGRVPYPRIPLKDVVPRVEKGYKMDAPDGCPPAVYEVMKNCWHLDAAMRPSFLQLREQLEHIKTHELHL

| Structure (SMILES) | Kd [1] | Kd [2] | Kd [3] | Kd (Myosin-IIIa) | Kd (Activin receptor type-2A) | Kd [4] | Kd [5] | Kd [6] | Kd [7] | Kd [8] | Kd [9] | Kd [10] | Kd [11] |
| --- | --- | --- | --- | --- | --- | --- | --- | --- | --- | --- | --- | --- | --- |
| COCC(=O)NC/C=C/c1ccc2ncnc(Nc3ccc(Oc4ccc(C)nc4)c(C)c3)c2c1 [CP-724714] | > 10 µM | > 10 µM | > 10 µM | > 10 µM | > 10 µM | > 10 µM | > 10 µM | > 10 µM | > 10 µM | > 10 µM | > 10 µM | > 10 µM | > 10 µM |
| NC(=O)c1ccc(-c2nc(-c3ccc4c(c3)OCO4)c(-c3ccccn3)[nH]2)cc1 [SB-431542] | > 10 µM | > 10 µM | > 10 µM | > 10 µM | > 10 µM | > 10 µM |  | > 10 µM | > 10 µM |  | > 10 µM | > 10 µM |  |
| Nc1nc(Nc2ccc(S(N)(=O)=O)cc2)nn1C(=O)c1c(F)cccc1F [JNJ-7706621] | > 10 µM |  | > 10 µM | > 10 µM |  |  | 3.6 µM | > 10 µM | 1.6 µM |  |  | 0.026 µM |  |
| CCOc1cc2ncc(C#N)c(Nc3ccc(F)c(Cl)c3)c2cc1NC(=O)/C=C/CN(C)C [PELITINIB] |  |  |  | > 10 µM | > 10 µM | 0.92 µM | 0.1 µM | > 10 µM | > 10 µM | 2.8 µM | > 10 µM | 2.7 µM | > 10 µM |
| Oc1ccc(-c2nc(-c3ccncc3)c(-c3ccc(F)cc3)[nH]2)cc1 [SB-202190] | > 10 µM | > 10 µM | > 10 µM | > 10 µM | > 10 µM | > 10 µM | 0.17 µM | > 10 µM | > 10 µM | > 10 µM | 2.4 µM | > 10 µM | > 10 µM |
